Blank lines part the entries; values can stand above or below the molecule they belong to.
Legend:
Assay type in all cases: biochemical
firefly luciferase [1] = details: reactions without RdRp or template, nucleotide 1 μM final
Method: (§1) To test the effect of NTPs on the ATP sulfurylase/luciferase coupled read-out system, control reactions for NS5B assays (with 0.3 U ATP sulfurylase) were assembled as above omitting RdRp and RNA. Reactions were initiated by addition of nucleotide (1 μM final). To reduce free PPi in commercial NTPs, 10 mM stocks were pretreated with inorganic pyrophosphatase. A 10 μl aliquot of the NTP stock was incubated with 0.5 U of thermostable inorganic pyrophosphatase for 10 minutes at 75° C.; untreated NTP samples were processed in parallel as controls. Treated and untreated NTPs were diluted to 100 μM working stocks for subsequent assays.
(§2) Another possible source of background is direct utilization of the NTPs by the ATP sulfurylase/luciferase cascade. To address this possibility, reactions without either RdRp or template were examined.

firefly luciferase [2] = target: T1, firefly luciferase (Photinus pyralis, UniProt P08659)
T1 construct: purchased Promega (Madison, Wis.)
Method: as §1, §2

HCV NS5B = target: T2, HCV NS5B (Hepatitis C virus genotype 1b, UniProt P26663); assay: Continuous non-radioactive (luciferase-coupled) NS5B polymerase assay, inhibitor test; details: NS5B 20 nM, GTP 1 μM, inhibitor 0.1-2.5 μM, FIG. 3
T2 construct: The HCV NS5BΔ55 enzyme was prepared as described by Ferrari et al; made in house
Method: Polymerase assays were performed at room temperature using a 100 μl reaction mix in a 96-well plate. Final reaction conditions for NS5B were modified from those used by Ferrari et al. J. Virol. 73:1649-54 (1999) [20 mM Hepes pH 7.3; 7.5 mM DTT; 20 U/ml RNAsin; 0.5 μg/ml oligo(G)12; 5 μg/ml poly(C); 1 μM GTP; 10 mM MgCl2; 60 mM NaCl; 100 μg/ml BSA; and NS5B]. NS5B assay mixtures were supplemented with components for the ATP sulfurylase and luciferase coupled enzyme reactions [0.5 mM coenzyme A (CoA); 310 μM D-luciferin; 1 nM luciferase; 5 μM APS; 0.03-0.3 U ATP sulfurylase (see Brief Description of the Drawings for specific conditions)]. […]
To test the effect of inhibitors on the NS5B polymerase reaction, compounds were diluted in the appropriate diluents and added to the GTP-containing mixture. Microtiter plates containing the reaction samples were immediately transferred to the luminometer for detection of the light signal generated over time, taking a 0.2-1.0 s reading of each well every 30-60 s (time intervals depend on the number of samples tested). Readings were monitored in comparison to a no-NS5B reaction as a control for ATP generation in the absence of polymerase activity. […]

T2 sequence (P26663 2420-2955): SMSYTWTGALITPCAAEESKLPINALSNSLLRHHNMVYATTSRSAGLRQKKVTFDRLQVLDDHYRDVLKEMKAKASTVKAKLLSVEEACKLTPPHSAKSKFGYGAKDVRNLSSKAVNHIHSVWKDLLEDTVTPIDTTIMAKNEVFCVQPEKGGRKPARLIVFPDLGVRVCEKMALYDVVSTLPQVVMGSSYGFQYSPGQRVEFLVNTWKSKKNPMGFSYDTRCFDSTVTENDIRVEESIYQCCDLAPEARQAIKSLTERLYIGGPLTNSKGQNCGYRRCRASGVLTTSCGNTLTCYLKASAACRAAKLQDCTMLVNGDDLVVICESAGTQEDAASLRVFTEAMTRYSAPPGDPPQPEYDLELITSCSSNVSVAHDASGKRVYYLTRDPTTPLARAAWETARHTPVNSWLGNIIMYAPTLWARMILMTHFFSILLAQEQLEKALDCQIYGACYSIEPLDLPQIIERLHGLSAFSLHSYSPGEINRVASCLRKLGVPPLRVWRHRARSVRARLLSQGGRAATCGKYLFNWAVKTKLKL
T1 sequence (P08659 whole entry): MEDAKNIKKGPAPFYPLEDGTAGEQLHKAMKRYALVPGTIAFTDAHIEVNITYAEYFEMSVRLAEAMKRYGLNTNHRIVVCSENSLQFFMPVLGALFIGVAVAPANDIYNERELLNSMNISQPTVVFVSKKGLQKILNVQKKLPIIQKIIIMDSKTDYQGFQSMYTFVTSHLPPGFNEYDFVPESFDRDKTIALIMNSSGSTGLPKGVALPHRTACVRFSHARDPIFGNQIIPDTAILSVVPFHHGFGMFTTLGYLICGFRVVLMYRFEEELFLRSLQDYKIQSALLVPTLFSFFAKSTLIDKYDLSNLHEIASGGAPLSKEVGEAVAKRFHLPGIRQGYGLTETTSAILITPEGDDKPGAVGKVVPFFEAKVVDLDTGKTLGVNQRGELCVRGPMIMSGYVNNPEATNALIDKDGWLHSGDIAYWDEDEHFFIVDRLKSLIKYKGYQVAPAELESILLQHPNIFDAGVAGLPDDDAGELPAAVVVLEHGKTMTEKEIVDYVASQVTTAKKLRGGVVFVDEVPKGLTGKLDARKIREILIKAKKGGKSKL

- Utilization of NTP as substrate by the ATP sulfurylase/luciferase cascade (background signal) (firefly luciferase [1]): lowest level of signal
SMILES: Nc1nc2c(ncn2[C@@H]2O[C@H](COP(=O)(O)OP(=O)(O)OP(=O)(O)O)[C@@H](O)[C@H]2O)c(=O)[nH]1 [GTP]

SMILES: Nc1ncnc2c1ncn2[C@@H]1O[C@H](COP(=O)(O)OP(=O)(O)OP(=O)(O)O)[C@@H](O)[C@H]1O [ATP, Adenosine 5′-triphosphate]
- Km (firefly luciferase [2]; read-out: Km for the luciferase reaction, under these experimental conditions, data not shown): 0.65 ± 0.04 µM

- Utilization of NTP as substrate by the ATP sulfurylase/luciferase cascade (background signal) (firefly luciferase [1]): poor substrate for luciferase
SMILES: Nc1ncnc2c1ncn2[C@@H]1O[C@H](COP(O)(=S)OP(=O)(O)OP(=O)(O)O)[C@@H](O)[C@H]1O (stereo partly shown) [ATPαS]

SMILES: Nc1nc2c(ncn2[C@@H]2O[C@H](COP(=O)(O)OP(=O)(O)OP(=O)(O)O)C[C@H]2O)c(=O)[nH]1 [3′-deoxyguanosine-5′ triphosphate]
- Inhibition of NS5B activity (reduced levels of light generated) (HCV NS5B; 30 minute reaction): Dose- and time-dependent inhibition
- Mode of inhibition from progress curves (HCV NS5B): consistent with chain termination

SMILES: O=P(O)(O)OP(=O)(O)OP(=O)(O)OC[C@H]1O[C@@H](n2cnc3c(O)ncnc32)[C@H](O)[C@@H]1O [Inosine triphosphate (ITP), Inosine triphosphate]
- Luciferase substrate quality relative to GTP (firefly luciferase [2]; reactions without RdRp or template, nucleotide 1 μM final): about 10 fold
- Utilization of NTP as substrate by the ATP sulfurylase/luciferase cascade (background signal) (firefly luciferase [1]): relatively good luciferase substrate

— patent US20040142322A1, “Continuous non-radioactive polymerase assay” (priority 2002, published 2004)
